Laboratory results from patent US8952024B2, “Herbicidal pyrimidone derivatives” (E I du Pont de Nemours and Company, priority 2009, dated 2015).

Test system: galium (catchweed bedstraw, Galium aparine)
Test: Test B pre-/postemergence plant response
Assay type: in vivo
Details: 250 g ai/ha, Preemergence, 0 to 100 scale
Procedure, shortened: (§1)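 Seeds were sown in loam soil/sand blend and treated preemergence with compound in non-phytotoxic solvent mixture containing surfactant; postemergence sprays, same formulation, went onto plants 2 to 18 cm (1- to 4-leaf stage) in peat-based planting medium. Greenhouse 13 to 15 days, then visual rating versus untreated controls, 0 (no effect) to 100 (complete control).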

In order of falling “Plant response rating, Galium” value:
1. Cc1ccccc1-n1c(-c2ccccc2)ncc(C(=O)C2=C(O)CCCC2=O)c1=O [Compound 12]  95
2. Cc1cc(C)cc(-n2c(-c3ccccc3)ncc(C(=O)C3=C(O)CCCC3=O)c2=O)c1 [Compound 33]  90
3. CCCCc1ncc(C(=O)C2=C(O)CCCC2=O)c(=O)n1-c1ccc(C)cc1 [Compound 67]  90
4. Cn1c(-c2ccccc2)ncc(C(=O)C2=C(O)CCCC2=O)c1=O [Compound 55]  85
5. 3-cyclohexyl-5-[(2-hydroxy-6-oxo-1-cyclohexen-1-yl)carbonyl]-2-phenyl-4(3H)-pyrimidinone [Compound 128]  75

Same assay, conditions: Preemergence, 31 g ai/ha; scale 0 to 100 (0 no effect, 100 complete control)

In order of falling “Plant response rating, Galium” value:
1. 3-cyclohexyl-5-[(2-hydroxy-6-oxo-1-cyclohexen-1-yl)carbonyl]-2-phenyl-4(3H)-pyrimidinone [Compound 128]  5
2. Cn1c(-c2ccccc2)ncc(C(=O)C2=C(O)CCCC2=O)c1=O [Compound 55]  0
3. Cc1cc(C)cc(-n2c(-c3ccccc3)ncc(C(=O)C3=C(O)CCCC3=O)c2=O)c1 [Compound 33]  0
4. CCCCc1ncc(C(=O)C2=C(O)CCCC2=O)c(=O)n1-c1ccc(C)cc1 [Compound 67]  0
5. Cc1ccccc1-n1c(-c2ccccc2)ncc(C(=O)C2=C(O)CCCC2=O)c1=O [Compound 12]  0

Same assay, conditions: Preemergence, 62 g ai/ha; scale 0 to 100 (0 no effect, 100 complete control)

In order of rising “Plant response rating, Galium” value:
1. Cn1c(-c2ccccc2)ncc(C(=O)C2=C(O)CCCC2=O)c1=O [Compound 55]  0
2. Cc1cc(C)cc(-n2c(-c3ccccc3)ncc(C(=O)C3=C(O)CCCC3=O)c2=O)c1 [Compound 33]  10
3. CCCCc1ncc(C(=O)C2=C(O)CCCC2=O)c(=O)n1-c1ccc(C)cc1 [Compound 67]  35
4. 3-cyclohexyl-5-[(2-hydroxy-6-oxo-1-cyclohexen-1-yl)carbonyl]-2-phenyl-4(3H)-pyrimidinone [Compound 128]  50
5. Cc1ccccc1-n1c(-c2ccccc2)ncc(C(=O)C2=C(O)CCCC2=O)c1=O [Compound 12]  50

Same assay, conditions: Preemergence, 125 g ai/ha; 0 to 100 scale

In order of rising “Galium plant response rating” value:
1. Cc1cc(C)cc(-n2c(-c3ccccc3)ncc(C(=O)C3=C(O)CCCC3=O)c2=O)c1 [Compound 33]  50
2. 3-cyclohexyl-5-[(2-hydroxy-6-oxo-1-cyclohexen-1-yl)carbonyl]-2-phenyl-4(3H)-pyrimidinone [Compound 128]  50
3. Cc1ccccc1-n1c(-c2ccccc2)ncc(C(=O)C2=C(O)CCCC2=O)c1=O [Compound 12]  90

Same assay, conditions: Preemergence, 125 g ai/ha; scale 0 to 100, 0 no effect, 100 complete control

In order of falling “Plant response rating, Galium” value:
1. CCCCc1ncc(C(=O)C2=C(O)CCCC2=O)c(=O)n1-c1ccc(C)cc1 [Compound 67]  85
2. Cn1c(-c2ccccc2)ncc(C(=O)C2=C(O)CCCC2=O)c1=O [Compound 55]  20

Test system: sunflower (common oilseed sunflower, Helianthus annuus)
Test: Test B pre-/postemergence plant response
Assay type: in vivo
Details: 250 g ai/ha, Preemergence, 0 to 100 scale
Procedure, shortened: as §1

In order of falling “Plant response rating, Sunflower” value:
1. Cc1ccccc1-n1c(-c2ccccc2)ncc(C(=O)C2=C(O)CCCC2=O)c1=O [Compound 12]  100
2. 3-cyclohexyl-5-[(2-hydroxy-6-oxo-1-cyclohexen-1-yl)carbonyl]-2-phenyl-4(3H)-pyrimidinone [Compound 128]  98
3. Cc1cc(C)cc(-n2c(-c3ccccc3)ncc(C(=O)C3=C(O)CCCC3=O)c2=O)c1 [Compound 33]  90

Same assay, conditions: Preemergence, 31 g ai/ha; scale 0 to 100 (0 no effect, 100 complete control)

In order of rising “Plant response rating, Sunflower” value:
1. CCCCc1ncc(C(=O)C2=C(O)CCCC2=O)c(=O)n1-c1ccc(C)cc1 [Compound 67]  0
2. Cn1c(-c2ccccc2)ncc(C(=O)C2=C(O)CCCC2=O)c1=O [Compound 55]  10
3. Cc1cc(C)cc(-n2c(-c3ccccc3)ncc(C(=O)C3=C(O)CCCC3=O)c2=O)c1 [Compound 33]  65
4. 3-cyclohexyl-5-[(2-hydroxy-6-oxo-1-cyclohexen-1-yl)carbonyl]-2-phenyl-4(3H)-pyrimidinone [Compound 128]  75
5. Cc1ccccc1-n1c(-c2ccccc2)ncc(C(=O)C2=C(O)CCCC2=O)c1=O [Compound 12]  95

Same assay, conditions: Preemergence, 62 g ai/ha; scale 0 to 100 (0 no effect, 100 complete control)

In order of rising “Plant response rating, Sunflower” value:
1. CCCCc1ncc(C(=O)C2=C(O)CCCC2=O)c(=O)n1-c1ccc(C)cc1 [Compound 67]  20
2. Cn1c(-c2ccccc2)ncc(C(=O)C2=C(O)CCCC2=O)c1=O [Compound 55]  60
3. Cc1cc(C)cc(-n2c(-c3ccccc3)ncc(C(=O)C3=C(O)CCCC3=O)c2=O)c1 [Compound 33]  75
4. 3-cyclohexyl-5-[(2-hydroxy-6-oxo-1-cyclohexen-1-yl)carbonyl]-2-phenyl-4(3H)-pyrimidinone [Compound 128]  85
5. Cc1ccccc1-n1c(-c2ccccc2)ncc(C(=O)C2=C(O)CCCC2=O)c1=O [Compound 12]  98

Same assay, conditions: Preemergence, 125 g ai/ha; 0 to 100 scale

In order of rising “Sunflower plant response rating” value:
1. Cc1cc(C)cc(-n2c(-c3ccccc3)ncc(C(=O)C3=C(O)CCCC3=O)c2=O)c1 [Compound 33]  75
2. 3-cyclohexyl-5-[(2-hydroxy-6-oxo-1-cyclohexen-1-yl)carbonyl]-2-phenyl-4(3H)-pyrimidinone [Compound 128]  95
3. Cc1ccccc1-n1c(-c2ccccc2)ncc(C(=O)C2=C(O)CCCC2=O)c1=O [Compound 12]  98

Same assay, conditions: Preemergence, 125 g ai/ha; scale 0 to 100, 0 no effect, 100 complete control

In order of rising “Plant response rating, Sunflower” value:
1. CCCCc1ncc(C(=O)C2=C(O)CCCC2=O)c(=O)n1-c1ccc(C)cc1 [Compound 67]  35
2. Cn1c(-c2ccccc2)ncc(C(=O)C2=C(O)CCCC2=O)c1=O [Compound 55]  60

Test system: nightshade (eastern black nightshade, Solanum ptycanthum)
Test: Test B pre-/postemergence plant response
Assay type: in vivo
Details: 250 g ai/ha, Preemergence, 0 to 100 scale
Procedure, shortened: as §1

In order of rising “Plant response rating, Nightshade” value:
1. Cc1cc(C)cc(-n2c(-c3ccccc3)ncc(C(=O)C3=C(O)CCCC3=O)c2=O)c1 [Compound 33]  100
2. 3-cyclohexyl-5-[(2-hydroxy-6-oxo-1-cyclohexen-1-yl)carbonyl]-2-phenyl-4(3H)-pyrimidinone [Compound 128]  100
3. Cc1ccccc1-n1c(-c2ccccc2)ncc(C(=O)C2=C(O)CCCC2=O)c1=O [Compound 12]  100

Same assay, conditions: Preemergence, 31 g ai/ha; scale 0 to 100 (0 no effect, 100 complete control)

In order of rising “Plant response rating, Nightshade” value:
1. Cn1c(-c2ccccc2)ncc(C(=O)C2=C(O)CCCC2=O)c1=O [Compound 55]  60
2. CCCCc1ncc(C(=O)C2=C(O)CCCC2=O)c(=O)n1-c1ccc(C)cc1 [Compound 67]  70
3. Cc1cc(C)cc(-n2c(-c3ccccc3)ncc(C(=O)C3=C(O)CCCC3=O)c2=O)c1 [Compound 33]  80
4. 3-cyclohexyl-5-[(2-hydroxy-6-oxo-1-cyclohexen-1-yl)carbonyl]-2-phenyl-4(3H)-pyrimidinone [Compound 128]  85
5. Cc1ccccc1-n1c(-c2ccccc2)ncc(C(=O)C2=C(O)CCCC2=O)c1=O [Compound 12]  100

Same assay, conditions: Preemergence, 62 g ai/ha; scale 0 to 100 (0 no effect, 100 complete control)

In order of falling “Plant response rating, Nightshade” value:
1. Cc1cc(C)cc(-n2c(-c3ccccc3)ncc(C(=O)C3=C(O)CCCC3=O)c2=O)c1 [Compound 33]  100
2. 3-cyclohexyl-5-[(2-hydroxy-6-oxo-1-cyclohexen-1-yl)carbonyl]-2-phenyl-4(3H)-pyrimidinone [Compound 128]  100
3. Cc1ccccc1-n1c(-c2ccccc2)ncc(C(=O)C2=C(O)CCCC2=O)c1=O [Compound 12]  100
4. Cn1c(-c2ccccc2)ncc(C(=O)C2=C(O)CCCC2=O)c1=O [Compound 55]  98
5. CCCCc1ncc(C(=O)C2=C(O)CCCC2=O)c(=O)n1-c1ccc(C)cc1 [Compound 67]  95

Same assay, conditions: Preemergence, 125 g ai/ha; 0 to 100 scale

In order of rising “Nightshade plant response rating” value:
1. Cc1cc(C)cc(-n2c(-c3ccccc3)ncc(C(=O)C3=C(O)CCCC3=O)c2=O)c1 [Compound 33]  100
2. 3-cyclohexyl-5-[(2-hydroxy-6-oxo-1-cyclohexen-1-yl)carbonyl]-2-phenyl-4(3H)-pyrimidinone [Compound 128]  100
3. Cc1ccccc1-n1c(-c2ccccc2)ncc(C(=O)C2=C(O)CCCC2=O)c1=O [Compound 12]  100

Same assay, conditions: Preemergence, 125 g ai/ha; scale 0 to 100, 0 no effect, 100 complete control

In order of rising “Plant response rating, Nightshade” value:
1. CCCCc1ncc(C(=O)C2=C(O)CCCC2=O)c(=O)n1-c1ccc(C)cc1 [Compound 67]  95
2. Cn1c(-c2ccccc2)ncc(C(=O)C2=C(O)CCCC2=O)c1=O [Compound 55]  100
